Measured values reported in ChEMBL document CHEMBL1201862, “PubChem BioAssay data set” (2004).
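Following 48 hours of exposure in 96-well plates, responses at five concentrations were used to interpolate endpoints linearly. Here, GI50 denotes the concentration required for 50% inhibition of growth.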 Active and inactive are the calls of the source. Rule as the data show it: active = GI50 up to about 1.1 µM and inactive = higher.

How the values were obtained:
Assay in all cases: NCI tumour cell line growth inhibition, 48 h
M14 = tested on: M14
HT-29 = tested on: HT-29
RXF 393 = tested on: RXF 393
A498 = tested on: A498
OVCAR-4 = tested on: OVCAR-4
KM12 = tested on: KM12
UACC-62 = tested on: UACC-62
MDA-N = tested on: MDA-N
EKVX = tested on: EKVX
MOLT-4 = tested on: MOLT-4
K562 = tested on: K562
BT-549 = tested on: BT-549
UACC-257 = tested on: UACC-257
Hs-578T = tested on: Hs-578T
T47D = tested on: T47D
NCI-H522 = tested on: NCI-H522
A549 = tested on: A549
UO-31 = tested on: UO-31
SNB-75 = tested on: SNB-75
RPMI-8226 = tested on: RPMI-8226

Measured: GI50

CCN1C(NN)=NS(=O)(=O)c2ccccc21
inactive: M14 > 100 µM | HT-29 > 100 µM | RXF 393 > 100 µM | A498 > 100 µM | OVCAR-4 > 100 µM | KM12 > 100 µM | UACC-62 > 100 µM | MDA-N > 100 µM | EKVX > 100 µM | MOLT-4 > 100 µM | K562 > 100 µM | BT-549 > 100 µM | UACC-257 > 100 µM | Hs-578T > 100 µM | T47D > 100 µM | NCI-H522 > 100 µM | A549 > 100 µM | UO-31 > 100 µM

CCOC(=O)Cc1ccc(Nc2nc3cc(C(F)(F)F)ccc3nc2C(=O)OCC)cc1
inactive: SNB-75 20.7 µM | M14 > 100 µM | HT-29 > 100 µM | RXF 393 20.5 µM | A498 32.7 µM | OVCAR-4 18.9 µM | KM12 > 100 µM | UACC-62 48.8 µM | MDA-N > 100 µM | EKVX > 100 µM | MOLT-4 > 100 µM | BT-549 77.1 µM | UACC-257 > 100 µM | Hs-578T 30 µM | T47D > 100 µM | NCI-H522 50.8 µM | A549 > 100 µM | UO-31 > 100 µM

Cc1nn(C(=O)c2ccccc2O)c2c1C(c1ccco1)SC(=N)N2 (stereo not given)
inactive: SNB-75 1.45 µM | M14 3.5 µM | HT-29 > 10 µM | RXF 393 7.1 µM | A498 6.07 µM | OVCAR-4 3.04 µM | KM12 5.47 µM | UACC-62 2.13 µM | MDA-N 7.4 µM | RPMI-8226 4.43 µM | EKVX > 10 µM | MOLT-4 3.61 µM | K562 2.93 µM | BT-549 > 10 µM | UACC-257 9.89 µM | Hs-578T 6.92 µM | T47D 4.83 µM | A549 4.43 µM | UO-31 5.6 µM

Cc1c(/N=C/C=C/c2ccccc2)c(=O)n(-c2ccccc2)n1C
inactive: M14 16.3 µM | HT-29 27.5 µM | RXF 393 39.7 µM | A498 14.7 µM | OVCAR-4 13 µM | KM12 21.3 µM | UACC-62 17.2 µM | MDA-N 18.5 µM | RPMI-8226 14.3 µM | EKVX 27.2 µM | MOLT-4 12.9 µM | BT-549 22.8 µM | UACC-257 45.3 µM | Hs-578T 23.1 µM | T47D 23 µM | NCI-H522 50.8 µM | A549 > 100 µM | UO-31 36.5 µM

COc1ccc(/C=C2\CCS(=O)(=O)c3ccccc3C2=O)cc1
inactive: SNB-75 33.3 µM | M14 34.4 µM | HT-29 18.8 µM | RXF 393 22.6 µM | A498 20.9 µM | OVCAR-4 24.5 µM | KM12 16.6 µM | UACC-62 20 µM | MDA-N 31.4 µM | RPMI-8226 19.3 µM | EKVX 19.1 µM | MOLT-4 18.1 µM | K562 30.1 µM | BT-549 31.8 µM | UACC-257 23.3 µM | Hs-578T 31.3 µM | T47D 22.7 µM | A549 39.4 µM | UO-31 19.7 µM

S=C1SC(=N\c2ccccc2)/C(=N/c2ccccc2)N1c1ccc2ccccc2c1
inactive: SNB-75 74.8 µM | M14 > 100 µM | RXF 393 7.26 µM | A498 > 100 µM | OVCAR-4 80.7 µM | KM12 > 100 µM | UACC-62 > 100 µM | MDA-N > 100 µM | RPMI-8226 > 100 µM | K562 > 100 µM | BT-549 > 100 µM | Hs-578T 64.1 µM | T47D > 100 µM | NCI-H522 > 100 µM | UO-31 > 100 µM

CCOC(=O)c1[nH]cc(C)c1-c1ccn(-c2ccccc2)c1
inactive: SNB-75 13.3 µM | M14 48.2 µM | HT-29 29.6 µM | RXF 393 36.8 µM | A498 > 100 µM | OVCAR-4 41.9 µM | KM12 19.6 µM | UACC-62 36.8 µM | MDA-N 35.6 µM | EKVX 27 µM | MOLT-4 18.3 µM | K562 21.1 µM | BT-549 43.4 µM | UACC-257 35.3 µM | Hs-578T 25.9 µM | T47D 35 µM | NCI-H522 20.1 µM | A549 59.6 µM | UO-31 25.8 µM

O=C(c1ccco1)N(C(=O)N1CCC(c2ccccc2)CC1)c1ccccc1
inactive: SNB-75 1.95 µM | M14 41.4 µM | HT-29 47.6 µM | RXF 393 34 µM | A498 94.8 µM | KM12 27.2 µM | UACC-62 52.1 µM | MDA-N 42.5 µM | RPMI-8226 17.4 µM | EKVX 20.2 µM | MOLT-4 17.7 µM | K562 29 µM | BT-549 33.7 µM | UACC-257 38.9 µM | Hs-578T 60.4 µM | T47D 21.4 µM | UO-31 24.4 µM

COC(=O)N1CC[C@@H]2CCC=C(c3cccc4c3OCO4)[C@@H]21
inactive: SNB-75 17.7 µM | M14 > 100 µM | HT-29 79.6 µM | RXF 393 > 100 µM | A498 > 100 µM | OVCAR-4 45.4 µM | KM12 > 100 µM | UACC-62 81.7 µM | MDA-N > 100 µM | EKVX 79.4 µM | MOLT-4 26.1 µM | K562 42.8 µM | BT-549 81.5 µM | UACC-257 78.5 µM | Hs-578T > 100 µM | T47D 32.1 µM | NCI-H522 > 100 µM | A549 > 100 µM | UO-31 40.7 µM

O=C(Nc1ccccc1)c1cc(S(=O)(=O)n2ccnc2O)c(S)cc1Cl
inactive: SNB-75 28.8 µM | M14 > 100 µM | HT-29 > 100 µM | RXF 393 > 100 µM | A498 > 100 µM | KM12 > 100 µM | UACC-62 > 100 µM | MDA-N > 100 µM | RPMI-8226 > 100 µM | EKVX > 100 µM | MOLT-4 > 100 µM | K562 > 100 µM | BT-549 > 100 µM | UACC-257 > 100 µM | Hs-578T > 100 µM | T47D > 100 µM | NCI-H522 > 100 µM | A549 > 100 µM | UO-31 > 100 µM

CCOC(=O)NC(Nc1cc(Cl)ccc1OC)(C(F)(F)F)C(F)(F)F
inactive: SNB-75 > 100 µM | M14 > 100 µM | HT-29 > 100 µM | RXF 393 68.9 µM | A498 > 100 µM | KM12 > 100 µM | UACC-62 > 100 µM | MDA-N > 100 µM | RPMI-8226 > 100 µM | EKVX > 100 µM | MOLT-4 > 100 µM | K562 > 100 µM | BT-549 > 100 µM | UACC-257 > 100 µM | Hs-578T > 100 µM | T47D > 100 µM | NCI-H522 64 µM | A549 > 100 µM | UO-31 30.1 µM
